Measurements published in US12545677B2, “Compounds useful as factor XIa inhibitors” (JANSSEN PHARMACEUTICA NV, priority 2020, dated 2026).

Key:
[1] = Reactive metabolite study in human liver microsomes (GSH/KCN trapping); assay type: in vitro ADME; settings: human liver microsomes 1 mg/mL protein, 10 μM substrate, NADPH, 1 mM GSH, 1 mM KCN, 37° C., 60 min
Protocol: Reactive Metabolite Study in Human Liver Microsomes
The compound of formula (I-A) was assessed for bioactivation in HLM using GSH and KCN as trapping agents. The compound was incubated in human liver microsomes supplemented with NADPH, KCN and GSH at 37° C. for 60 min. The incubations were conducted with 1 mg/mL protein, 10 μM substrate, 1 mM GSH (non-labeled and labeled at 3:1) and KCN 1 mM (non-labeled and labeled at 3:1) in a total volume of 1 mL. Nefazodone (10 μM) was incubated under the same conditions as a positive control. After incubations, protein precipitation was performed for extraction of the metabolites by mixing with 5× volume of acetonitrile. The proteins were pelleted by centrifugation (3000 rpm, 10 minutes, 4° C.) and the supernatants were transferred into clean test tubes and evaporated to dryness under a gentle stream of nitrogen. The resulting residues were reconstituted in 300 μL of solvent mixture of water:acetonitrile (8:2 v/v) containing 0.1% formic acid prior to filtration using 0.45 μm nylon filter at 10,000×g at room temperature for 3 minutes. The filtrate was transferred to a 96-well plate for liquid chromatography/tandem mass spectrometric (LC-MS/MS) analysis.
LC-MS/MS analysis: Agilent 1260 Infinity UHPLC was coupled to a Bruker Q-TOF. The mass spectrometers were operated in a positive electrospray ionization mode. […]

[2] = tested on: activated partial thromboplastin time (aPTT); experiment: Ex vivo clotting assay (aPTT); assay type: in vivo, New Zealand White (NZW) rabbits; settings: for ex vivo aPTT Onset of Clotting Time, mean: n 4, in s (unit assumed)
Excerpt: The following coagulation reagents were purchased from Diagnostica Stago (Parsippany, NJ): Thrombin 10 (Catalog No: 00611, lot No: 251851) for thrombin time (TT), Neoplastine® Cl 5 (Catalog No: 00666, lot No: 01504) for prothrombin time (PT), C.K. Prest® 5 (Catalog No: 00597, lot No: 112768) and CaCl2 (0.025 M, Catalog No: 00367, Lot No: 254158) for activated partial thromboplastin time (aPTT). Coagulometer STA rt4 (Diagnotica Stago) was used for ex vivo clotting time analysis.
Blood samples (1 mL each) were collected in 3.2% sodium citrate (BD Biosciences, Franklin Lakes, NJ) before and after shunt set up from the femoral artery cannula and centrifuged at 2500 g for 15 minutes at 20° C. The resulting platelet poor plasma (PPP) was transferred into clean tubes and stored at −80° C. until use.
Coagulation assays were performed with PPP in a 4 channel coagulometer STA rt4 (Diagnotica Stago). For the aPTT assay, 50 μl C.K. Preset reagent was incubated with 50 μl PPP for 3 min at 37° C. in a cuvette, and coagulation was initiated by adding 50 μl 25 mM CaCl2). The onset of clotting was recorded as the coagulation time.
Statistical analysis: All the data are expressed as mean±SEM. Statistical analyses were performed using GraphPad Prism software (v8.0). Significance was defined at p<0.05 as determined by one-way ANOVA. Tukey's test was used for multiple comparisons.

[3] = tested on: mitochondrial respiration in HepG2 cells; experiment: Seahorse assay, mitochondrial respiration; assay type: cell-based; settings: Homo sapiens, 0.3-100 μM, read-out: IC50, mitochondrial respiration as measured by spare respiratory capacity
Protocol: Biological Example 11: Seahorse Assay
The purpose of this assay was to investigate the effect of the compound of formula (I-A) on mitochondrial respiration in HepG2 cells using the Agilent Seahorse XFe96 analyzer. Cell viability was also determined in HepG2 cells in parallel to the Seahorse assay.
Measurement of mitochondrial respiration in HepG2 Cells: Compound doses were prepared in 100% DMSO and subsequently diluted in assay medium to achieve final solvent concentration of 0.10%. HepG2 cells were plated overnight in a Seahorse plate (Agilent Technologies, Santa Clara, California) at a density of 40,000 cells/well in EMEM containing 10% HI FBS and 1× Pen/Strep cell culture. […] Mitochondrial respiration, quantitated as oxygen consumption rate (OCR), was measured on an Agilent Seahorse XFe96 analyzer using the Seahorse Mito Stress test assay as per the manufacturer's protocol. […]
Data Analyses: Mitochondrial SRC (spare respiratory capacity) was calculated by subtracting the rate of the basal respiration from the rate of the maximal respiration. […] All experiments were run in triplicate and the mean and standard deviations were calculated for each test concentration. […]
IC50 values were determined by nonlinear regression and fitting of the dose response curves to a […] equation with variable slope (Hill coefficient): […]

[4] = 0.15 + 0.13 mg/kg initial + maintenance, 20 min post initial dose
[5] = 0.15 + 0.13 mg/kg initial + maintenance, 60 min post initial dose
[6] = 0.5 + 0.43 mg/kg initial + maintenance, 20 min post initial dose
[7] = 0.5 + 0.43 mg/kg initial + maintenance, 60 min post initial dose
[8] = 1.5 + 1.3 mg/kg initial + maintenance, 20 min post initial dose
[9] = 1.5 + 1.3 mg/kg initial + maintenance, 60 min post initial dose
[10] = 5.0 + 4.3 mg/kg initial + maintenance, 20 min post initial dose
[11] = 5.0 + 4.3 mg/kg initial + maintenance, 60 min post initial dose
[12] = 15.0 + 13.0 mg/kg initial + maintenance, 20 min post initial dose
[13] = 15.0 + 13.0 mg/kg initial + maintenance, 60 min post initial dose

With O=C1C=C(c2c(-n3cnnn3)ccc(Cl)c2F)C[C@H]2CC[C@@H](c3ncc(-c4ccnc(CO)c4F)[nH]3)N12 [Compound of formula (I-A), (3S,8aR)-7-(3-Chloro-2-fluoro-6-(1H-tetrazol-1-yl)phenyl)-3-(5-(3-fluoro-2-(hydroxymethyl)pyridin-4-yl)-1H-imidazol-2-yl)-2,3,8,8a-tetrahydroindolizin-5(1H)-one] the “formation of GSH adducts or KCN adducts” value [1] was “did not form GSH adducts or KCN adducts”, the “ex vivo aPTT, Fold vs baseline” value [2, 4] was 1.37 and the “ex vivo aPTT Onset of Clotting Time, mean” value (from here on “ex vivo aPTT Onset”) [2, 4] was 28.00. The “ex vivo aPTT, Fold vs baseline” value [2, 5] was 1.17, the “ex vivo aPTT Onset” value [2, 5] was 23.88 and the “ex vivo aPTT, Fold vs baseline” value [2, 6] was 1.24. The “ex vivo aPTT Onset” value [2, 6] was 25.40, the “ex vivo aPTT, Fold vs baseline” value [2, 7] was 1.02 and the “ex vivo aPTT Onset” value [2, 7] was 20.95. The “ex vivo aPTT, Fold vs baseline” value [2, 8] was 1.59, the “ex vivo aPTT Onset” value [2, 8] was 32.50 and the “ex vivo aPTT, Fold vs baseline” value [2, 9] was 1.37. For the same molecule, the “ex vivo aPTT Onset” value [2, 9] was 28.05, the “ex vivo aPTT, Fold vs baseline” value [2, 10] was 2.32 and the “ex vivo aPTT Onset” value [2, 10] was 47.40. The “ex vivo aPTT, Fold vs baseline” value [2, 11] was 2.14, the “ex vivo aPTT Onset” value [2, 11] was 43.75 and the “ex vivo aPTT, Fold vs baseline” value [2, 12] was 3.40. For the same molecule, the “ex vivo aPTT Onset” value [2, 12] was 69.6, the “ex vivo aPTT, Fold vs baseline” value [2, 13] was 3.27 and the “ex vivo aPTT Onset” value [2, 13] was 67.00. It also gave an IC50 [3] of over 100 µM.
